Source: patent US10703764B2, “Benzopiperazine compositions as BET bromodomain inhibitors” (FORMA Therapeutics, Inc., priority 2013, dated 2020)
pIC50: −log10 of the molar value.

What was measured:
[1] = target: T1, BRD4 BD1 (Homo sapiens, UniProt O60885); experiment: AlphaScreen binding assay, BRD4 Bromodomain 1
T1 construct: made in house
Procedure, shortened: (§1)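 An AlphaScreen competition format was used with His-BRD4 BD1 or BD2 and biotin-H4 K5/8/12/16-acetyl peptide, each at matched final levels of 50 nM (BD1) or 100 nM (BD2). Incubation in HEPES/NaCl buffer with 0.1% BSA and 0.01% Triton X-100 ran ≥1 h before IC50 determination.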

[2] = target: T2, BRD4 BD2 (Homo sapiens, UniProt O60885); experiment: AlphaScreen binding assay, BRD4 Bromodomain 2
T2 construct: made in house
Procedure, shortened: as §1

[3] = test system: MV4-11 cells; experiment: Oncology cell growth assay (3-day proliferation, CellTiter-Glo); assay type: cell-based; settings: Homo sapiens, MV4-11, 72 h, AML cell line MV4-11, 72 hours, compounds grouped by IC50 range, read-out: MV4-11 IC50 (inhibition of proliferation, gIC50)
Procedure, shortened: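 72 h, 37° C, 5% CO2; MV4-11, 3000 cells/well, RPMI 1640 + 10% FBS. Compound final 10, 3.3, 1.1, 0.37, 0.12, 0.041, 0.013, 0.0045 μM. Readout CellTiter-Glo luminescence; gIC50 by 4-parameter logistic fit, normalised to DMSO and no-cell background.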

Compound	pIC50 [1]	pIC50 [2]	pIC50 [3]
CC(=O)N1c2ccc(-c3ccc(C(=O)N4CCOCC4)cc3)cc2N(C(=O)c2ccco2)C[C@@H]1C [Example I-283]	5.00 to 6.00	> 7.30	6.30 to 7.00
CC(=O)N1c2ccc(-c3cnn(C4CC4)c3)cc2N(C(=O)Oc2ccc(C)nc2)C[C@@H]1C [Example I-511]	> 7.00	> 7.30	6.30 to 7.00
CC(=O)N1c2ccc(-c3ccc4c(c3)N(S(C)(=O)=O)CCC4)cc2N(C(=O)C2CC2)C[C@@H]1C [Example I-1184]	6.00 to 7.00	6.30 to 7.30	6.30 to 7.00
CC(=O)N1c2ccc(-c3cnn(C4CC4)c3)cc2N(c2nn(C)c3ccncc23)C[C@@H]1C [Example I-186, 1-[(2S)-6-(1-cyclopropyl-1H-pyrazol-4-yl)-2-methyl-4-{1-methyl-1H-pyrazolo[4,3-c]pyridin-3-yl}-1,2,3,4-tetrahydroquinoxalin-1-yl]ethan-1-one]	6.00 to 7.00	6.30 to 7.30	6.30 to 7.00
COC(=O)N1CCN(C(=O)c2ccc(-c3ccc4c(c3)N(C(=O)OC(C)C)C[C@H](C)N4C(C)=O)cc2)CC1 [Example I-546]	6.00 to 7.00	6.30 to 7.30	6.30 to 7.00
CCCn1cc(-c2ccc3c(c2)N(C(=O)c2ccco2)C[C@H](C)N3C(C)=O)cn1 [Example I-269]	6.00 to 7.00	> 7.30	6.30 to 7.00
CC(=O)N1c2ccc(-c3cnn(C4CC4)c3)cc2N(C(=O)OC2CCOCC2)C[C@@H]1C [Example I-1000]	> 7.00	6.30 to 7.30	6.30 to 7.00
CC(=O)N1c2ccc(-c3ccc(N4CCOCC4)cc3)cc2N(C(=O)C2CCC2)C[C@@H]1C [Example I-1059]	5.00 to 6.00	6.30 to 7.30	6.30 to 7.00
CC(=O)Nc1ccc2c(c1)N(C(C)=O)[C@@H](C)CN2C(=O)OC(C)C [Example I-200, Isopropyl (S)-6-acetamido-4-acetyl-3-methyl-3,4-dihydroquinoxaline-1(2H)-carboxylate]	5.00 to 6.00	6.30 to 7.30	< 6.30
CC(=O)N1c2ccc(-c3ccc(S(C)(=O)=O)cc3)cc2N(C(=O)OC2CCCCC2)C[C@@H]1C [Example I-238]	6.00 to 7.00	> 7.30	6.30 to 7.00
CC(=O)N1c2ccc(-c3cnn(CCCO)c3)cc2N(C(=O)OC(C)C)C[C@@H]1C [Example I-137, (S)-isopropyl 4-acetyl-7-(1-(3-hydroxypropyl)-1H-pyrazol-4-yl)-3-methyl-3,4-dihydroquinoxaline-1(2H)-carboxylate]	6.00 to 7.00	6.30 to 7.30	6.30 to 7.00
CC(=O)N1c2ccc(-c3cnn(Cc4ccnn4C)c3)cc2N(C(=O)C2CC2)C[C@@H]1C [Example I-652]	6.00 to 7.00	6.30 to 7.30	< 6.30
CC(=O)N1c2ccc(-c3ccc(S(C)(=O)=O)cc3)cc2N(C(=O)OCC2CC2)C[C@@H]1C [Example I-495]	6.00 to 7.00	< 6.30	6.30 to 7.00
CC(=O)N1c2ccc(-c3ccc(OCCS(C)(=O)=O)cc3)cc2N(C(=O)OC(C)C)C[C@@H]1C [Example I-1103]	6.00 to 7.00	6.30 to 7.30	< 6.30
CC(=O)N1c2ccc(-c3cnn(C(C)C)c3)cc2N(C(=O)C2CC2)C[C@@H]1C [Example I-647]	6.00 to 7.00	6.30 to 7.30	< 6.30
CC(=O)N1c2ccc(-c3ccc(S(N)(=O)=O)cc3)cc2N(C(=O)OC(C)C)C[C@@H]1C [Example I-1069]	6.00 to 7.00	6.30 to 7.30	6.30 to 7.00
CC(=O)N1c2ccc(-c3ccc(N4CCCS4(=O)=O)cc3)cc2N(C(=O)C2CC2)C[C@@H]1C [Example I-439]	6.00 to 7.00	6.30 to 7.30	6.30 to 7.00
CCOC(=O)N1C[C@H](C)N(C(C)=O)c2ccc(-c3ccc(S(=O)(=O)NC)cc3)cc21 [Example I-1121]	5.00 to 6.00	6.30 to 7.30	6.30 to 7.00
